Here are results for three molecules from US6572879B1, “Formulations for transdermal delivery of pergolide” (Alza Corporation, priority 1995, dated 2003).

The structures appear in SMILES notation. Counter-ions that a name gives are not always drawn.

Series [1] can be described thus: In vitro flux of pergolide through human cadaver epidermis in diffusion cells at 35° C. Format: in vitro ADME. The note with it: 2% by weight in water donor, no permeation enhancer, over a period of 50 hours. On the procedure:
Several test samples were made to measure the flux of pergolide base and mesylate through human cadaver epidermis from donor vehicles containing the pergolide base or mesylate mixed with water alone, water and ethanol, or mineral oil alone as shown in Table 1. Transdermal fluxes were obtained using human epidermis at 35° C. in standard diffusion cells. FIGS. 5 and 6 graphically depict the results.
Circular pieces of human epidermis were placed with stratum corneum facing up. The release liner of the laminate was removed and the system was centered over the stratum corneum side of the epidermis. The edges of epidermis were then folded around the system. This assembly was then mounted on a Teflon rod. A known volume of receptor solution was then placed in a test tube and was equilibrated at 35° C. The Teflon rod with system and epidermis attached was then placed in a water bath at 35° C. Mixing was accomplished by attachment to a motor which caused constant vertical mixing.
At given time intervals, the entire receptor solution was removed from the test tubes and replaced with an equal volume of fresh receptor solutions previously equilibrated at 35° C. The receptor solutions are stored in capped vials at room temperature until assayed for pergolide content by HPLC. From the drug concentration and the volume of the receptor solutions, the area of permeation and the time interval, the flux of the drug through the epidermis was calculated as follows: (drug concentration X volume of receptor)/(area x time)=flux (μg/cm^2·hr).

The nature of series [2]: Plasma terminal half-life of pergolide administered transdermally. It counts as in vivo. The note with it: human, topical or ocular.

As usually defined, the half-life is how long it takes for the measured level to halve. Low readings indicate rapid decline, high ones slow decline.

As to `CCCN1C[C@H](CSC)C[C@@H]2c3cccc4[nH]cc(c34)C[C@H]21` [pergolide mesylate, 8-[(methylthiolmethyl]6-propylergoline monomethanesulfonate)], the results for the “average baseline skin flux” value in series [1] and in series [1] (listed as pergolide6mesylate) were “approximately 1.1 μg/cm^2·hr” and “about 1.1 μg/cm^2·hr”, respectively.

Take `CCCN1CC(CSC)C[C@@H]2c3cccc4[nH]cc(c34)C[C@H]21` (some centres unmarked) [pergolide base, 8-[(methylthio)methyl]-6-propylergoline]: the figures for the “average baseline skin flux” value in series [1] and in series [1] (listed as pergolide. base) were “approximately 0.3 μg/cm^2·hr” and “about 0.3 μg/cm^2·hr”, respectively.

Consider `CCCN1CC(CSC)C[C@@H]2c3cccc4[nH]cc(c34)C[C@H]21` (some centres unmarked) [pergolide, 8-[(methylthio)methyl]-6-propylergoline], for which, in series [2], the half-life was 5 to 10 h.
